Drawing on publication PMC5874177 (Journal of the American Chemical Society, 2018), this text covers Ki for two molecules.

Molecules are shown by their SMILES. Like-named read-outs stand apart in the source and are kept apart here.

The target of test [1] is T1, tryptophan 2,3-dioxygenase (TDO) (Homo sapiens, UniProt P48775). It is filed as biochemical.
Test [2] addresses T1, tryptophan 2,3-dioxygenase (TDO). Type of test: biochemical. The source holds these as a separate data set.

T1 sequence (P48775 whole entry): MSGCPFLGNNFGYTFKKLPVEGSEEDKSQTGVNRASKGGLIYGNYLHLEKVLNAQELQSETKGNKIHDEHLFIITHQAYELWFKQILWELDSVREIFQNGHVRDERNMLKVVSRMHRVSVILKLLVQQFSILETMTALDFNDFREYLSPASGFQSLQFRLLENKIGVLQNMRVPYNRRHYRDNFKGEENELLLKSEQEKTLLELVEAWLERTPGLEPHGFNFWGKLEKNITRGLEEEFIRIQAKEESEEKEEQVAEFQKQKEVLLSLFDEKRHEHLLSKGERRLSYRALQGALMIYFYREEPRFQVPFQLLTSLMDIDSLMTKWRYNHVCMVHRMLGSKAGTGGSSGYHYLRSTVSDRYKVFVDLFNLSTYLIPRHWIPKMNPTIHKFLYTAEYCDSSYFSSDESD

As to `O=C(O)C(O)Cc1c[nH]c2ccccc12` (centres unmarked) [compound 2, probe 2], the affinity in test [1], expressed as Ki, was 444 ± 32 µM.

Turning to `CC(Cc1c[nH]c2ccccc12)C(=O)O` (centres unmarked) [compound 1, probe 1], the Ki (usually the equilibrium dissociation constant of an inhibitor or competing ligand from its target) in test [2] is 320 ± 43 µM.
